Reference: the supplement of paper PMC11061612

Key:
Test in all cases: combination Emax (second highest fraction inhibited in the dose matrix, 72 h); higher = more inhibition; extreme values may be limits of the assay
[1] = test system: MDA-MB-453 (Breast Carcinoma)
How it was run: (§1)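 Cell lines in DMEM/F12 or RPMI with 10% FBS were plated in 1536-well plates, held 24 hours at 37°C, 5% CO2, then given two-drug dose matrices for 72 hours (DMSO typically 0.2%). Viability was read by CellTiter-Glo 2.0 luminescence and scaled as inhibition from 0 (vehicle wells) to 1 (blank wells). Combination Emax is the second-highest inhibition in the matrix; Bliss excess is observed combination effect minus expected EA + EB − EA·EB, EA and EB being single-agent effects.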

[2] = test system: OE33 (Esophageal Adenocarcinoma)
How it was run: as §1

Hey (Ovarian Carcinoma) = test system: Hey (Ovarian Carcinoma)
How it was run: as §1

[3] = test system: HAL-01 (B-Lymphoblastic Leukemia)
How it was run: as §1

[4] = test system: NCI-H1355 (Lung Adenocarcinoma)
How it was run: as §1

[5] = test system: HCC1500 (Breast Carcinoma)
How it was run: as §1

[6] = test system: SNU-387 (Hepatocellular Carcinoma)
How it was run: as §1

[7] = test system: SK-LU-1 (Lung Adenocarcinoma)
How it was run: as §1

[8] = test system: KMRC-1 (Kidney Carcinoma)
How it was run: as §1

[9] = test system: MOG-G-UVW (Low Grade Glioma)
How it was run: as §1

[10] = test system: NCI-H1838 (Lung Adenocarcinoma)
How it was run: as §1

COLO-679 (Melanoma) = test system: COLO-679 (Melanoma)
How it was run: as §1

[11] = test system: NCI-H1993 (Lung Adenocarcinoma)
How it was run: as §1

[12] = test system: MOLT-4 (T-Lymphoblastic Leukemia)
How it was run: as §1

[13] = test system: G-401 (Other Solid Carcinomas)
How it was run: as §1

[14] = test system: EFO-21 (Ovarian Carcinoma)
How it was run: as §1

[15] = test system: COLO-668 (Small Cell Lung Carcinoma)
How it was run: as §1

[16] = test system: HCC1937 (Breast Carcinoma)
How it was run: as §1

[17] = test system: SKN (Other Solid Carcinomas)
How it was run: as §1

[18] = test system: KGN (Other Solid Carcinomas)
How it was run: as §1

| SMILES | combination Emax [1] | combination Emax [2] | combination Emax (Hey (Ovarian Carcinoma)) | combination Emax [3] | combination Emax [4] | combination Emax [5] | combination Emax [6] | combination Emax [7] | combination Emax [8] | combination Emax [9] | combination Emax [10] | combination Emax (COLO-679 (Melanoma)) | combination Emax [11] | combination Emax [12] | combination Emax [13] | combination Emax [14] | combination Emax [15] | combination Emax [16] | combination Emax [17] | combination Emax [18] |
| --- | --- | --- | --- | --- | --- | --- | --- | --- | --- | --- | --- | --- | --- | --- | --- | --- | --- | --- | --- | --- |
| CN(C)CCCOc1ccc(-c2ccc3ncc4c(c3c2)n(C2CCOCC2)c(=O)n4C)cn1 [AZD0156] + C=CCn1c(=O)c2cnc(Nc3ccc(N4CCN(C)CC4)cc3)nc2n1-c1cccc(C(C)(C)O)n1 [AZD1775] (first compound max 1 µM, partner max 1 µM) | 0.192 | 0.472 | 0.495 | 0.917 | 0.532 | 0.283 | 0.464 | 0.384 | 0.259 | 0.744 | 0.465 | 0.552 | 0.586 | 1 | 0.646 | 0.472 | 0.405 | 0.475 | 0.336 | 0.806 |
| CN(C)CCCOc1ccc(-c2ccc3ncc4c(c3c2)n(C2CCOCC2)c(=O)n4C)cn1 [AZD0156] + CCN(CCO)CCCOc1ccc2c(Nc3cc(CC(=O)Nc4cccc(F)c4)[nH]n3)ncnc2c1 [AZD2811] (first compound max 1 µM, 7x7, partner max 1 µM) | 0.144 | 0.068 | 0.229 | 0.435 | 0.216 | 0.298 | 0.207 | 0.143 | 0.13 | 0.615 | 0.263 | 0.159 | 0.288 | 0.968 | 0.309 | 0.116 | 0.0922 | 0.159 | 0.042 | 0.551 |
| CN(C)CCCOc1ccc(-c2ccc3ncc4c(c3c2)n(C2CCOCC2)c(=O)n4C)cn1 [AZD0156] + C[C@@H]1COCCN1C2=NC(=NC(=C2)C3(CC3)[S@](=N)(=O)C)C4=C5C=CNC5=NC=C4 [AZD6738] (first compound max 1 µM, 7x7, partner max 10 µM) | 0.831 | 0.788 | 0.84 | 0.988 | 0.69 | 0.298 | 0.553 | 0.474 | 0.575 | 0.816 | 0.745 | 0.749 | 0.616 | 0.97 | 0.493 | 0.549 | 0.612 | 0.543 | 0.344 | 0.848 |
| CN(C)CCCOc1ccc(-c2ccc3ncc4c(c3c2)n(C2CCOCC2)c(=O)n4C)cn1 [AZD0156] + O=C(c1cc(Cc2n[nH]c(=O)c3ccccc23)ccc1F)N1CCN(C(=O)C2CC2)CC1 [Olaparib] (first compound max 3 µM, partner max 3 µM) | 0.286 | 0.207 | 0.408 | 0.563 | 0.305 | 0.403 | 0.405 | 0.334 | 0.151 | 0.632 | 0.21 | 0.225 | 0.498 | 0.636 | 0.3 | 0.252 | 0.179 | 0.228 | 0.188 | 0.62 |
| C=CCn1c(=O)c2cnc(Nc3ccc(N4CCN(C)CC4)cc3)nc2n1-c1cccc(C(C)(C)O)n1 [AZD1775] + C1CN(CCC1(C(=O)N[C@@H](CCO)C2=CC=C(C=C2)Cl)N)C3=NC=NC4=C3C=CN4 [Capivasertib] (first compound max 3 µM, partner max 3 µM) | 0.859 | 0.639 | 0.726 | 0.977 | 0.646 | 0.413 | 0.687 | 0.634 | 0.593 | 0.891 | 0.501 | 0.412 | 0.701 | 0.989 | 0.646 | 0.515 | 0.545 | 0.873 | 0.576 | 0.734 |
| C=CCn1c(=O)c2cnc(Nc3ccc(N4CCN(C)CC4)cc3)nc2n1-c1cccc(C(C)(C)O)n1 [AZD1775] + C[C@@H]1COCCN1C2=NC(=NC(=C2)C3(CC3)[S@](=N)(=O)C)C4=C5C=CNC5=NC=C4 [AZD6738] (first compound max 1 µM, partner max 10 µM) | 0.891 | 0.819 | 0.809 | 1 | 0.777 | 0.382 | 0.7 | 0.488 | 0.669 | 0.922 | 0.733 | 0.723 | 0.689 | 1 | 0.793 | 0.543 | 0.893 | 0.68 | 0.506 | 0.922 |
| C=CCn1c(=O)c2cnc(Nc3ccc(N4CCN(C)CC4)cc3)nc2n1-c1cccc(C(C)(C)O)n1 [AZD1775] + O=C(c1cc(Cc2n[nH]c(=O)c3ccccc23)ccc1F)N1CCN(C(=O)C2CC2)CC1 [Olaparib] (first compound max 1 µM, partner max 10 µM) | 0.411 | 0.507 | 0.552 | 0.935 | 0.614 | 0.227 | 0.567 | 0.436 | 0.279 | 0.864 | 0.477 | 0.491 | 0.604 | 1 | 0.769 | 0.308 | 0.566 | 0.497 | 0.412 | 0.745 |
| CCN(CCO)CCCOc1ccc2c(Nc3cc(CC(=O)Nc4cccc(F)c4)[nH]n3)ncnc2c1 [AZD2811] + C=CCn1c(=O)c2cnc(Nc3ccc(N4CCN(C)CC4)cc3)nc2n1-c1cccc(C(C)(C)O)n1 [AZD1775] (first compound max 1 µM, partner max 1 µM) | 0.301 | 0.467 | 0.497 | 0.891 | 0.568 | 0.227 | 0.575 | 0.416 | 0.184 | 0.771 | 0.483 | 0.491 | 0.458 | 1 | 0.566 | 0.472 | 0.42 | 0.471 | 0.236 | 0.767 |
| CCN(CCO)CCCOc1ccc2c(Nc3cc(CC(=O)Nc4cccc(F)c4)[nH]n3)ncnc2c1 [AZD2811] + C[C@@H]1COCCN1C2=NC(=NC(=C2)C3(CC3)[S@](=N)(=O)C)C4=C5C=CNC5=NC=C4 [AZD6738] (first compound max 1 µM, 7x7, partner max 10 µM) | 0.807 | 0.8 | 0.711 | 0.99 | 0.679 | 0.312 | 0.494 | 0.473 | 0.566 | 0.783 | 0.643 | 0.679 | 0.513 | 1 | 0.536 | 0.45 | 0.644 | 0.47 | 0.393 | 0.822 |
| CCN(CCO)CCCOc1ccc2c(Nc3cc(CC(=O)Nc4cccc(F)c4)[nH]n3)ncnc2c1 [AZD2811] + O=C(c1cc(Cc2n[nH]c(=O)c3ccccc23)ccc1F)N1CCN(C(=O)C2CC2)CC1 [Olaparib] (first compound max 1 µM, 7x7, partner max 10 µM) | 0.112 | 0.127 | 0.319 | 0.37 | 0.318 | 0.22 | 0.17 | 0.229 | 0.19 | 0.668 | 0.275 | 0.281 | 0.191 | 0.974 | 0.496 | 0.203 | 0.178 | 0.238 | 0.127 | 0.629 |
| COc1nnc2ccc(N3CCC(c4ccc(OCCN5CCN(C)C(=O)[C@H]5C)cc4)CC3)nn12 [AZD5153] + C=CCn1c(=O)c2cnc(Nc3ccc(N4CCN(C)CC4)cc3)nc2n1-c1cccc(C(C)(C)O)n1 [AZD1775] (first compound max 1 µM, partner max 1 µM) | 0.731 | 0.435 | 0.655 | 0.88 | 0.57 | 0.402 | 0.469 | 0.442 | 0.358 | 0.711 | 0.441 | 0.505 | 0.545 | 1 | 0.914 | 0.51 | 0.665 | 0.472 | 0.687 | 0.781 |
| COc1nnc2ccc(N3CCC(c4ccc(OCCN5CCN(C)C(=O)[C@H]5C)cc4)CC3)nn12 [AZD5153] + CC1(C)CCC(CN2CCN(c3ccc(C(=O)NS(=O)(=O)c4ccc(NCC5CCOCC5)c([N+](=O)[O-])c4)c(Oc4cnc5[nH]ccc5c4)c3)CC2)=C(c2ccc(Cl)cc2)C1 [Venetoclax] (first compound max 1 µM, 7x7, partner max 1 µM) | 0.649 | 0.19 | 0.523 | 0.979 | 0.327 | 0.755 | 0.434 | 0.358 | 0.263 | 0.715 | 0.35 | 0.442 | 0.444 | 0.425 | 0.821 | 0.425 | 0.811 | 0.344 | 0.594 | 0.729 |
| Cc1c2c(nn1C)CSCc1cc(n(C)n1)CSc1cc(c3ccccc3c1)OCCCc1c(C(=O)O)n(C)c3c-2c(Cl)ccc13 [AZD5991] + C[C@@H](Nc1cc(F)cc(F)c1)c1cc(C(=O)N(C)C)cc2c(=O)cc(N3CCOCC3)oc12 [AZD8186] (first compound max 1 µM, 7x7, partner max 3 µM) | 0.355 | – | 0.258 | 0.734 | 0.227 | 0.426 | 0.41 | 0.384 | 0.639 | 0.512 | 0.472 | 0.332 | 0.455 | 0.526 | 0.612 | 0.337 | 0.205 | 0.511 | 0.532 | 0.443 |
